Measured values taken from patent US11780840B2 (Incyte Corporation, priority 2020, dated 2023).

How the values were obtained:
[1] = molecular target: T1, catalytic domain (JH1, amino acids 826-1132) of human JAK2 (Homo sapiens, UniProt O60674); experiment: JAK2 LanthaScreen JH1 Binding Assay; settings: JAK2 JH1 (1.5 nM), 50 nM fluorescent JAK2-JH1 tracer, 2 hours at 25° C.; read-out: JH1 BIND
T1 construct: catalytic domain (JH1, amino acids 826-1132) of human JAK2; FLAG (N); purchased Carna Biosciences 08-445-20N; host or cells: baculovirus expression system
T1 sequence (O60674 826-1132): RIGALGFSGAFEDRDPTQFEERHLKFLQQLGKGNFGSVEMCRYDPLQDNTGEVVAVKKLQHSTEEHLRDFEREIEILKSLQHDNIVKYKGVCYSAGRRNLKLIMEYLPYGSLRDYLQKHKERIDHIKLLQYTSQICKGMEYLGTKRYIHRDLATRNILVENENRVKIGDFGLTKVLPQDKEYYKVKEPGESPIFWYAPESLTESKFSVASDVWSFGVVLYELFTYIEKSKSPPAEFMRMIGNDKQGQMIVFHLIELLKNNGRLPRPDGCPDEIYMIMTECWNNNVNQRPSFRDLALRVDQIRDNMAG
How it was run: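 TR-FRET tracer-displacement format: compound IC50 from four-parameter curves after 2 h at 25° C. Reaction held 1.5 nM biotinylated, FLAG-tagged JH1 (aa 826-1132), 50 nM tracer, 0.5 nM Streptavidin-Tb, pH 7.5 Tris buffer; 2 mM ATP set nonspecific background.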

[2] = molecular target: T2, pseudo-kinase domain (JH2, amino-acids 536-812 with 3 surface mutations W659A, W777A, F794H) of human Wild Type JAK2 (Homo sapiens, UniProt O60674, F794H/W659A/W777A); experiment: JAK2 LanthaScreen JH2-WT Binding Assay; settings: JAK2 JH2-WT (0.145 nM), 50 nM Fluorescent JAK2-JH2 Tracer, 1 hour at 25° C.; read-out: JH2 BIND WT
T2 construct: pseudo-kinase domain (JH2, amino-acids 536-812 with 3 surface mutations W659A, W777A, F794H); His (C); Avi (biotinylated) (C); purchased BPS Bioscience 79463; host or cells: baculovirus expression system
T2 sequence (O60674 536-812 W659A/W777A/F794H): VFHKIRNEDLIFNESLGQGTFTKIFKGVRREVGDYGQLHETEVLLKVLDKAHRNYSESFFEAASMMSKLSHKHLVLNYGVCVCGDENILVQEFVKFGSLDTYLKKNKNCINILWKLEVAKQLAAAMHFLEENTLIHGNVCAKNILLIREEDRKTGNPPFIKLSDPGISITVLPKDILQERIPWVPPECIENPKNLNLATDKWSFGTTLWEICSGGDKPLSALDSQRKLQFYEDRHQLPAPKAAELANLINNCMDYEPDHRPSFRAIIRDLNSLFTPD
How it was run: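 Biotinylated C-terminal His-Avi-tagged JH2 (residues 536-812, baculovirus-expressed) at 0.145 nM was incubated with serially diluted compounds, 50 nM fluorescent JAK2-JH2 tracer and 0.25 nM streptavidin-Tb cryptate in pH 7.5 Tris buffer with MgCl2, Brij-35, BSA, EGTA, glycerol and DTT. LanthaScreen TR-FRET was read after 1 hour at 25° C; IC50 came from four-parameter fits.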

[3] = molecular target: T3, pseudo-kinase domain (JH2, amino-acids 536-812 with 3 surface mutations W659A, W777A, F794H) of human V617F mutant JAK2 (Homo sapiens, UniProt O60674, F794H/V617F/W659A/W777A); experiment: JAK2 LanthaScreen JH2-V617F Binding Assay; settings: JAK2 JH2-V617F (0.26 nM), 50 nM Fluorescent JAK2-JH2 Tracer, 1 hour at 25° C.; read-out: JH2 BIND V617F
T3 construct: pseudo-kinase domain (JH2, amino-acids 536-812 with 3 surface mutations W659A, W777A, F794H); His (C); Avi (biotinylated) (C); purchased BPS Bioscience 79498; host or cells: baculovirus expression system
T3 sequence (O60674 536-812 V617F/W659A/W777A/F794H): as the sequence (O60674 536-812 W659A/W777A/F794H) above, with V82F counted along it
How it was run: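 Serially diluted compounds are mixed with 0.26 nM protein, 50 nM fluorescent JAK2-JH2 tracer and 0.25 nM terbium-labelled streptavidin, then incubated 1 h at 25° C. LanthaScreen signal is read, and IC50 is fitted.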

Row | SMILES | IC50 [1] [nM] | IC50 [2] [nM] | IC50 [3] [nM]
1 | Cn1ncc2cc(-c3c(-c4ccc(Oc5cccnc5)nc4)[nH]c4ncc5c(c34)n(C3CCCC3)c(=O)n5C)ccc21 [Example 67, 1-Cyclopentyl-3-methyl-8-(1-methyl-1H-indazol-5-yl)-7-(6-(pyridin-3-yloxy)pyridin-3-yl)-3,6-dihydroimidazo[4,5-d]pyrrolo[2,3-b]pyridin-2(1H)-one] | > 1000 | 10 to 100 | 10 to 100
2 | Cn1ncc2cc(-c3c(C4CC4)[nH]c4ncc5c(c34)n(C3CCCC3)c(=O)n5C)ccc21 [Example 68, 1-Cyclopentyl-7-cyclopropyl-3-methyl-8-(1-methyl-1H-indazol-5-yl)-3,6-dihydroimidazo[4,5-d]pyrrolo[2,3-b]pyridin-2(1H)-one] | 500 to 1000 | ≤ 10 | ≤ 10
3 | Cn1ncc2cc(-c3c(C4=CCCCC4)[nH]c4ncc5c(c34)n(C3CCCC3)c(=O)n5C)ccc21 [Example 69, 7-(Cyclohex-1-en-1-yl)-1-cyclopentyl-3-methyl-8-(1-methyl-1H-indazol-5-yl)-3,6-dihydroimidazo[4,5-d]pyrrolo[2,3-b]pyridin-2(1H)-one] | > 1000 | ≤ 10 | ≤ 10
4 | Cn1ncc2cc(-c3c(CCO)[nH]c4ncc5c(c34)n(C3CCCC3)c(=O)n5C)ccc21 [Example 70, 1-Cyclopentyl-7-(2-hydroxyethyl)-3-methyl-8-(1-methyl-1H-indazol-5-yl)-3,6-dihydroimidazo[4,5-d]pyrrolo[2,3-b]pyridin-2(1H)-one] | > 1000 | 100 to 500 | 100 to 500
5 | Cn1c(=O)n(C2CCCC2)c2c3c(-c4cc5cnccc5s4)c(C4CC4)[nH]c3ncc21 [Example 71, 1-Cyclopentyl-7-cyclopropyl-3-methyl-8-(thieno[3,2-c]pyridin-2-yl)-3,6-dihydroimidazo[4,5-d]pyrrolo[2,3-b]pyridin-2(1H)-one] | 500 to 1000 | ≤ 10 | 10 to 100
6 | Cn1ncc2cc(-c3c(C4CC4C#N)[nH]c4ncc5c(c34)n(C3CCCC3)c(=O)n5C)ccc21 (stereo not drawn) [Example 72, 2-(1-Cyclopentyl-3-methyl-8-(1-methyl-1H-indazol-5-yl)-2-oxo-1,2,3,6-tetrahydroimidazo [4,5-d]pyrrolo[2,3-b]pyridin-7-yl)cyclopropane-1-carbonitrile] | 500 to 1000 | ≤ 10 | 10 to 100
7 | COCC(=O)NC1CCC(n2c(=O)n(C)c3cnc4[nH]c(-c5cnn(CC(C)(C)O)c5)c(-c5ccc6c(cnn6C)c5)c4c32)CC1 (stereo not drawn) [Example 73, N-(4-(7-(1-(2-Hydroxy-2-methylpropyl)-1H-pyrazol-4-yl)-3-methyl-8-(1-methyl-1H-indazol-5-yl)-2-oxo-3,6-dihydroimidazo[4,5-d]pyrrolo[2,3-b]pyridin-1(2H)-yl)cyclohexyl)-2-methoxyacetamide] | > 1000 | ≤ 10 | ≤ 10
8 | CC(=O)NC1CCC(n2c(=O)n(C)c3cnc4[nH]c(-c5cnn(CC(C)(C)O)c5)c(-c5ccc6c(cnn6C)c5)c4c32)CC1 (stereo not drawn) [Example 74, N-(4-(7-(1-(2-Hydroxy-2-methylpropyl)-1H-pyrazol-4-yl)-3-methyl-8-(1-methyl-1H-indazol-5-yl)-2-oxo-3,6-dihydroimidazo[4,5-d]pyrrolo[2,3-b]pyridin-1(2H)-yl)cyclohexyl) acetamide] | 500 to 1000 | ≤ 10 | ≤ 10
9 | CC(C)n1c(=O)n(C)c2cnc3[nH]c(-c4cnn(CC(C)(C)O)c4)c(-c4cc5cnccc5s4)c3c21 [Example 75, 7-(1-(2-Hydroxy-2-methylpropyl)-1H-pyrazol-4-yl)-1-isopropyl-3-methyl-8-(thieno[3,2-c]pyridin-2-yl)-3,6-dihydroimidazo[4,5-d]pyrrolo[2,3-b]pyridin-2(1H)-one] | 500 to 1000 | ≤ 10 | ≤ 10
10 | CC(C)n1c(=O)n(C)c2cnc3[nH]c(-c4cnn(CC(C)(C)O)c4)c(-c4cnc(N5CCOCC5)s4)c3c21 [Example 76, 7-(1-(2-Hydroxy-2-methylpropyl)-1H-pyrazol-4-yl)-1-isopropyl-3-methyl-8-(2-morpholinothiazol-5-yl)-3,6-dihydroimidazo[4,5-d]pyrrolo[2,3-b]pyridin-2(1H)-one] | > 1000 | 10 to 100 | 10 to 100
11 | CC(C)n1c(=O)n(C)c2cnc3[nH]c(-c4cnn(CC(C)(C)O)c4)c(-c4ccc5cnccc5c4)c3c21 [Example 77, 7-(1-(2-Hydroxy-2-methylpropyl)-1H-pyrazol-4-yl)-1-isopropyl-8-(isoquinolin-6-yl)-3-methyl-3,6-dihydroimidazo[4,5-d]pyrrolo[2,3-b]pyridin-2(1H)-one] | > 1000 | 10 to 100 | 10 to 100
12 | CC(C)n1c(=O)n(C)c2cnc3[nH]c(-c4cnn(CC(C)(C)O)c4)c(-c4ccc5ncsc5c4)c3c21 [Example 78, 8-(Benzo[d]thiazol-6-yl)-7-(1-(2-hydroxy-2-methylpropyl)-1H-pyrazol-4-yl)-1-isopropyl-3-methyl-3,6-dihydroimidazo[4,5-d]pyrrolo[2,3-b]pyridin-2(1H)-one] | > 1000 | 10 to 100 | 10 to 100
13 | CC(C)n1c(=O)n(C)c2cnc3[nH]c(-c4cnn(CC(C)(C)O)c4)c(-c4ccc5c(c4)CCCO5)c3c21 [Example 79, 8-(Chroman-6-yl)-7-(1-(2-hydroxy-2-methylpropyl)-1H-pyrazol-4-yl)-1-isopropyl-3-methyl-3,6-dihydroimidazo[4,5-d]pyrrolo[2,3-b]pyridin-2(1H)-one] | 100 to 500 | ≤ 10 | 10 to 100
14 | CC(C)n1c(=O)n(C)c2cnc3[nH]c(-c4cnn(CC(C)(C)O)c4)c(-c4cc5cnc(N6CCNCC6)cc5s4)c3c21 [Example 80, 7-(1-(2-Hydroxy-2-methylpropyl)-1H-pyrazol-4-yl)-1-isopropyl-3-methyl-8-(6-(piperazin-1-yl)thieno[3,2-c]pyridin-2-yl)-3,6-dihydroimidazo[4,5-d]pyrrolo[2,3-b]pyridin-2(1H)-one] | 100 to 500 | ≤ 10 | ≤ 10
15 | CC(=O)N1CCN(c2cc3sc(-c4c(-c5cnn(CC(C)(C)O)c5)[nH]c5ncc6c(c45)n(C(C)C)c(=O)n6C)cc3cn2)CC1 [Example 81, 8-(6-(4-Acetylpiperazin-1-yl)thieno[3,2-c]pyridin-2-yl)-7-(1-(2-hydroxy-2-methylpropyl)-1H-pyrazol-4-yl)-1-isopropyl-3-methyl-3,6-dihydroimidazo[4,5-d]pyrrolo[2,3-b]pyridin-2(1H)-one] | > 1000 | ≤ 10 | 10 to 100
16 | CC(C)n1c(=O)n(C)c2cnc3[nH]c(-c4cnn(CC(C)(C)O)c4)c(-c4cc5c(s4)CCNC5)c3c21 [Example 82, 7-(1-(2-Hydroxy-2-methylpropyl)-1H-pyrazol-4-yl)-1-isopropyl-3-methyl-8-(4,5,6,7-tetrahydrothieno[3,2-c]pyridin-2-yl)-3,6-dihydroimidazo[4,5-d]pyrrolo[2,3-b]pyridin-2(1H)-one] | > 1000 | 100 to 500 | 500 to 1000
17 | CC(C)n1c(=O)n(C)c2cnc3[nH]c(-c4cnn(CC(C)(C)O)c4)c(-c4cc5c(s4)CCN(S(C)(=O)=O)C5)c3c21 [Example 83, 7-(1-(2-Hydroxy-2-methylpropyl)-1H-pyrazol-4-yl)-1-isopropyl-3-methyl-8-(5-(methylsulfonyl)-4,5,6,7-tetrahydrothieno[3,2-c]pyridin-2-yl)-3,6-dihydroimidazo[4,5-d]pyrrolo[2,3-b]pyridin-2(1H)-one] | > 1000 | ≤ 10 | 10 to 100
18 | Cc1cn2cc(-c3c(-c4cnn(CC(C)(C)O)c4)[nH]c4ncc5c(c34)n(C(C)C)c(=O)n5C)cc2cn1 [Example 84, 7-(1-(2-Hydroxy-2-methylpropyl)-1H-pyrazol-4-yl)-1-isopropyl-3-methyl-8-(3-methylpyrrolo[1,2-a]pyrazin-7-yl)-3,6-dihydroimidazo[4,5-d]pyrrolo[2,3-b]pyridin-2(1H)-one] | > 1000 | ≤ 10 | ≤ 10
